Source: patent US5981558A, “DC107 derivatives” (Kyowa Hakko Kogyo Co., Ltd., priority 1996, dated 1999)
Like-named read-outs stand apart in the source and are kept apart here.

Tests used:
[1] = tested on: Sarcoma 180 mouse solid tumor; test: Antitumor activity against Sarcoma 180 mouse solid tumor; format: in vivo, mouse (ddY); settings: Sarcoma-180, iv, 168 h
Procedure: To a ddY mouse were intraperitoneally transplanted 5×10^6 sarcoma 180 cells. On the seventh day from the transplant, the cells were collected from the ascites, washed once with sterilized physiological saline, and then diluted with sterilized physiological saline to prepare a cell suspension having a concentration of 5×10^7 cells/mL. This suspension was transplanted in an amount of 0.01 mL to a subcutaneous part of the right axilla of each of male ddY mice each weighing 20±1 g.
A test compound was dissolved in physiological saline containing polyoxyethylene sorbitan monolaurate. At 24 hours after the tumor transplant, 0.2 mL of the solution was intravenously administered to the tail of each of a group of five mice.

[2] = tested on: HeLa S3 cells; test: HeLa S3 Cell Growth Inhibition Test; format: cell-based; settings: 72 hours incubation, Neutral Red
Procedure: In each well of a 96-well microtiter plate was placed 0.1 mL of HeLa S3 cells having a concentration of 8×10^3 cells/mL and prepared in an MEM culture medium containing 10% fetal bovine serum and 2 mM glutamine. After the cells were incubated overnight at 37° C. in a carbon dioxide incubator, a test compound suitably diluted with a medium was added to the wells in an amount of 0.05 mL for each well. The cells were incubated at 37° C. for 72 hours in a carbon dioxide incubator. After the culture supernatant was removed, 0.1 mL of a culture medium containing 0.02% Neutral Red was added to each well. The cells were then incubated at 37° C. for 1 hour in a carbon dioxide incubator to dye the cells. After the culture supernatant was removed, each residue was rinsed once with physiological saline and the pigment was extracted with 0.001 N hydrochloric acid/30% ethanol. The absorbance at 550 nm of each extract was measured with a microplate reader. The drug concentration required for the 50% inhibition of cell growth, which is referred to as IC50, was calculated by comparing the absorbance for untreated cells with those for cells treated with the drug in known concentrations.

[3] = 4.0 mg/kg i.v. once, 24 hours after transplant, tumor volume on day 7, read-out: T/C (tumor volume ratio treated/control)
[4] = 8.0 mg/kg i.v. once, 24 hours after transplant, tumor volume on day 7, read-out: T/C (tumor volume ratio treated/control)
[5] = Homo sapiens, HeLa S3, 72 h, HeLa S3, read-out: IC50, HeLa S3 cell growth inhibition
[6] = 16 mg/kg i.v. once, 24 hours after transplant, tumor volume on day 7, read-out: T/C (tumor volume ratio treated/control)
[7] = read-out: T/C (tumor volume ratio treated/control)
[8] = Homo sapiens, HeLa S3, 72 h, read-out: IC50, HeLa S3 cell growth inhibition, HeLa S3

Structure (SMILES): COC(=O)NCC(=O)OCSC(=O)C(C)(O)C12CC/C(C)=C/C(OC3CCCCO3)C(=O)/C=C/C=C\c3csc(n3)C(C)N(C(=O)C1)[S+]2[O-] (single isomer, unassigned) [Compound 41]
- response vs control in vivo at 4 mg/kg [1, 3]: 32%
- IC50 ([2]; HeLa S3, read-out: IC50, HeLa S3 cell growth inhibition): 4 nM

Structure (SMILES): C=C(CSC(=O)C(C)(O)C12CC/C(C)=C/C(OC3CCCCO3)C(=O)/C=C/C=C\c3csc(n3)C(C)N(C(=O)C1)[S+]2[O-])C(=O)OC (stereo not shown) [Compound 112]
- response vs control in vivo at 8 mg/kg [1, 4]: 24%
- IC50 [2, 5]: 64 nM

Structure (SMILES): CC1=C(CSC(=O)C(C)(O)C23CC/C(C)=C/C(OC4CCCCO4)C(=O)/C=C/C=C\c4csc(n4)C(C)N(C(=O)C2)[S+]3[O-])C(=O)OC(C)(C)O1 (stereo not shown) [Compound 123]
- response vs control in vivo at 16 mg/kg [1, 6]: 14%
- IC50 [2, 5]: 600 nM

Structure (SMILES): COC(=O)NCC(=O)OCSC(=O)C(C)(O)C12CC/C(C)=C/C(OC3CCCCO3)C(=O)/C=C/C=C\c3csc(n3)C(C)N(C(=O)C1)[S+]2[O-] (stereo not shown) [Compound 40]
- response vs control in vivo at 4 mg/kg [1, 3]: 36%
- IC50 [2, 5]: 15 nM

Structure (SMILES): CC1=CC(O)C(=O)C=CC=Cc2csc(n2)C(C)N2C(=O)CC(C(C)(O)C(=O)SCOC(=O)CC[C@H](NC(=O)OC(C)(C)C)C(=O)OC(C)(C)C)(CC1)[S+]2[O-] (stereo partly shown) [Compound 22]
- response vs control in vivo at 4 mg/kg [1, 3]: 42%
- IC50 [2, 5]: 7.4 nM

Structure (SMILES): CC1=CC(O)C(=O)C=CC=Cc2csc(n2)C(C)N2C(=O)CC(C(C)(O)C(=O)SCOC(=O)C(C)(C)NC(=O)OCc3ccccc3)(CC1)[S+]2[O-] (stereo not shown) [Compound 3]
- response vs control in vivo at 16 mg/kg [1, 6]: 21%
- IC50 [2, 5]: 130 nM

Structure (SMILES): CC1=CC(OC2CCCCO2)C(=O)C=CC=Cc2csc(n2)C(C)N2C(=O)CC(C(C)(O)C(=O)SCOC(=O)c3ccccc3)(CC1)[S+]2[O-] (stereo not shown) [Compound 7]
- response vs control in vivo at 4 mg/kg [1, 7]: 23%
- IC50 [2, 8]: 50 nM

Structure (SMILES): CC1=CC(OC2CCCCO2)C(=O)C=CC=Cc2csc(n2)C(C)N2C(=O)CC(C(C)(O)C(=O)SCOC(=O)C(C)(C)NC(=O)OCc3ccccc3)(CC1)[S+]2[O-] (single isomer, unassigned) [Compound 4]
- response vs control in vivo at 8 mg/kg [1, 4]: 30%
- IC50 [2, 5]: 39 nM

Structure (SMILES): COCCOCC(=O)OCc1oc(=O)oc1CSC(=O)C(C)(O)C12CC/C(C)=C/C(O)C(=O)/C=C/C=C\c3csc(n3)C(C)N(C(=O)C1)[S+]2[O-] (stereo not shown) [Compound 99]
- response vs control in vivo at 8 mg/kg [1, 4]: 40%
- IC50 [2, 5]: 87 nM

Structure (SMILES): CCOC(=O)N1CCC2(CC1)OC(=O)C(CSC(=O)C(C)(O)C13CC/C(C)=C/C(OC4CCCCO4)C(=O)/C=C/C=C\c4csc(n4)C(C)N(C(=O)C1)[S+]3[O-])=C(C)O2 (stereo not shown) [Compound 127]
- response vs control in vivo at 16 mg/kg [1, 6]: 29%
- IC50 ([2]; Homo sapiens, HeLa S3, read-out: IC50, HeLa S3 cell growth inhibition): 33 nM

Structure (SMILES): CC(=O)NC(Cc1ccc(OC(C)=O)cc1)C(=O)OCSC(=O)C(C)(O)C12CCC(C)=CC(O)C(=O)C=CC=Cc3csc(n3)C(C)N(C(=O)C1)[S+]2[O-] (stereo not shown) [Compound 29]
- response vs control in vivo at 4 mg/kg [1, 3]: 47%
- IC50 [2, 5]: 400 nM

Structure (SMILES): CC1=C(CSC(=O)C(C)(O)C23CC/C(C)=C/C(OC4CCCCO4)C(=O)/C=C/C=C\c4csc(n4)C(C)N(C(=O)C2)[S+]3[O-])C(=O)OC2(CCOCC2)O1 (stereo not shown) [Compound 125]
- response vs control in vivo at 16 mg/kg [1, 6]: 43%
- IC50 [2, 5]: 47 nM

Structure (SMILES): COC1(OC2/C=C(\C)CCC3(C(C)(O)C(=O)SCC4=C(C)OC(C)(C)OC4=O)CC(=O)N(C(C)c4nc(cs4)/C=C\C=C\C2=O)[S+]3[O-])CCOCC1 (stereo not shown) [Compound 122]
- response vs control in vivo at 16 mg/kg [1, 6]: 37%
- IC50 [2, 5]: 1800 nM

Structure (SMILES): C/C1=C\C(O)C(=O)/C=C/C=C\c2csc(n2)C(C)N2C(=O)CC(C(C)(O)C(=O)SCc3oc(=O)oc3COC=O)(CC1)[S+]2[O-] (stereo not shown) [Compound 88]
- response vs control in vivo at 8 mg/kg [1, 7]: 49%
- IC50 [2, 8]: 320 nM

Structure (SMILES): CC(=O)NCC(=O)OCc1oc(=O)oc1CSC(=O)C(C)(O)C12CC/C(C)=C/C(OC3CCCCO3)C(=O)/C=C/C=C\c3csc(n3)C(C)N(C(=O)C1)[S+]2[O-] (stereo not shown) [Compound 98]
- response vs control in vivo at 16 mg/kg [1, 6]: 40%
- IC50 [2, 5]: 70 nM

Structure (SMILES): CC1=CC(OC2CCCCO2)C(=O)C=CC=Cc2csc(n2)C(C)N2C(=O)CC(C(C)(O)C(=O)SCOC(=O)C3CCC(C(=O)O)CC3)(CC1)[S+]2[O-] (stereo not shown) [Compound 12]
- response vs control in vivo at 8 mg/kg [1, 4]: 47%
- IC50 [2, 5]: 870 nM

Structure (SMILES): CC(=O)Oc1cccc(C(=O)OCSC(=O)C(C)(O)C23CC/C(C)=C/C(OC4CCCCO4)C(=O)/C=C/C=C\c4csc(n4)C(C)N(C(=O)C2)[S+]3[O-])c1 (stereo not shown) [Compound 54]
- response vs control in vivo at 4 mg/kg [1, 3]: 47%
- IC50 [2, 5]: 15 nM

Structure (SMILES): CC1=CC(O)C(=O)C=CC=Cc2csc(n2)C(C)N2C(=O)CC(C(C)(O)C(=O)SCOC(=O)CO)(CC1)[S+]2[O-] (stereo not shown) [Compound 14]
- response vs control in vivo at 2 mg/kg [1, 7]: 44%
- IC50 [2, 8]: 380 nM

Structure (SMILES): CC1=CC(OC2CCCCO2)C(=O)C=CC=Cc2csc(n2)C(C)N2C(=O)CC(C(C)(O)C(=O)SCOC(=O)CO)(CC1)[S+]2[O-] (stereo not shown) [Compound 15]
- response vs control in vivo at 1 mg/kg [1, 7]: 45%
- IC50 [2, 8]: 14 nM

Structure (SMILES): COCCOCCOCC(=O)OCc1oc(=O)oc1CSC(=O)C(C)(O)C12CC/C(C)=C/C(OC3CCCCO3)C(=O)/C=C/C=C\c3csc(n3)C(C)N(C(=O)C1)[S+]2[O-] (stereo not shown) [Compound 102]
- response vs control in vivo at 16 mg/kg [1, 6]: 46%
- IC50 [2, 5]: 38 nM

Structure (SMILES): COC(=O)[C@H](CCC(=O)OCSC(=O)C(C)(O)C12CCC(C)=CC(O)C(=O)C=CC=Cc3csc(n3)C(C)N(C(=O)C1)[S+]2[O-])NC(=O)[C@H]1O[C@@H]2OC(C)(C)O[C@@H]2[C@H]2OC(C)(C)O[C@H]21 (stereo partly shown) [Compound 25]
- response vs control in vivo at 16 mg/kg [1, 6]: 30%
- IC50 [2, 5]: 800 nM

Structure (SMILES): COCOCc1oc(=O)oc1CSC(=O)C(C)(O)C12CC/C(C)=C/C(OC3CCCCO3)C(=O)/C=C/C=C\c3csc(n3)C(C)N(C(=O)C1)[S+]2[O-] (stereo not shown) [Compound 78]
- response vs control in vivo at 8 mg/kg [1, 4]: 50%
- IC50 [2, 5]: 2.2 nM

Structure (SMILES): C/C1=C\C(OC2CCCCO2)C(=O)/C=C/C=C\c2csc(n2)C(C)N2C(=O)CC(C(C)(O)C(=O)SCc3oc(=O)oc3CO)(CC1)[S+]2[O-] (stereo not shown) [Compound 87]
- response vs control in vivo at 16 mg/kg [1, 7]: 40%
- IC50 [2, 8]: 33 nM

Structure (SMILES): C/C1=C\C(O)C(=O)/C=C/C=C\c2csc(n2)C(C)N2C(=O)CC(C(C)(O)C(=O)SCOC(=O)CCCNC(=O)[C@@]34O[C@@H](CO)[C@@H](O)[C@@H]3OC(C)(C)O4)(CC1)[S+]2[O-] (stereo partly shown) [Compound 141]
- response vs control in vivo at 4 mg/kg [1, 7]: 31%

Structure (SMILES): COC(=O)[C@H](CCC(=O)OCSC(=O)C(C)(O)C12CC/C(C)=C/C(OC3CCCCO3)C(=O)/C=C/C=C\c3csc(n3)C(C)N(C(=O)C1)[S+]2[O-])NC(=O)[C@@]12O[C@H]3COC(C)(C)O[C@H]3[C@@H]1OC(C)(C)O2 (single isomer, unassigned) [Compound 50]
- response vs control in vivo at 8 mg/kg [1, 7]: 41%
- IC50 [2, 8]: 16 nM

Structure (SMILES): CC1=CC(O)C(=O)C=CC=Cc2csc(n2)C(C)N2C(=O)CC(C(C)(O)C(=O)SCOC(=O)CNC(=O)OC(C)(C)C)(CC1)[S+]2[O-] (stereo not shown) [Compound 16]
- response vs control in vivo at 2 mg/kg [1, 7]: 47%
- IC50 [2, 8]: 6.1 nM

Structure (SMILES): C/C1=C\C(O)C(=O)/C=C/C=C\c2csc(n2)C(C)N2C(=O)CC(C(C)(O)C(=O)SCOC(=O)CCCNC(=O)C3(C)COC(C)(C)OC3)(CC1)[S+]2[O-] (stereo not shown) [Compound 138]
- response vs control in vivo at 4 mg/kg [1, 7]: 34%

Structure (SMILES): COCCOCCOCCOC(=O)OCSC(=O)C(C)(O)C12CC/C(C)=C/C(O)C(=O)/C=C/C=C\c3csc(n3)C(C)N(C(=O)C1)[S+]2[O-] (stereo not shown) [Compound 149]
- response vs control in vivo at 8 mg/kg [1, 7]: 42%

Structure (SMILES): C/C1=C\C(O)C(=O)/C=C/C=C\c2csc(n2)C(C)N2C(=O)CC(C(C)(O)C(=O)SCc3oc(=O)oc3CO[C@@H]3C[C@H](O)[C@@H](O)[C@H](C)O3)(CC1)[S+]2[O-] (stereo partly shown) [Compound 154]
- response vs control in vivo at 4 mg/kg [1, 7]: 40%

Structure (SMILES): C/C1=C\C(O)C(=O)/C=C/C=C\c2csc(n2)C(C)N2C(=O)CC(C(C)(O)C(=O)SCc3oc(=O)oc3CO[C@H]3C[C@H](O)[C@@H](O)[C@H](C)O3)(CC1)[S+]2[O-] (stereo partly shown) [Compound 155]
- response vs control in vivo at 8 mg/kg [1, 7]: 37%
